Measured values from ChEMBL document CHEMBL1909046, “DrugMatrix in vitro pharmacology data”.

Assays:
[1] = target: T1, Type-2 angiotensin II receptor (Homo sapiens, UniProt P50052); format: cell-based; conditions: cho-k1; also: in other assays of this panel Not Active means under 50% inhibition at 10 µM
T1 sequence (P50052 whole entry): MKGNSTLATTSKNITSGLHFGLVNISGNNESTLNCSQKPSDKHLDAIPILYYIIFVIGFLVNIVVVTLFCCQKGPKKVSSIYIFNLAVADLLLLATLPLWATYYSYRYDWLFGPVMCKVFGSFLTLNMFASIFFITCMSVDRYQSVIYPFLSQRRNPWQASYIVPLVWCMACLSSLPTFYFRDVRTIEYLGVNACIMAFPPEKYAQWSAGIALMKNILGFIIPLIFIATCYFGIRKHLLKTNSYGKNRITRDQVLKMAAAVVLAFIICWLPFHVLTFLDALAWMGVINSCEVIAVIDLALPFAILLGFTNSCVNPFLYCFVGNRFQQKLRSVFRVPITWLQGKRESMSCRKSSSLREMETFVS

[2] = DRUGMATRIX: ATPase, Na+/K+ enzyme inhibition (substrate: ATP); format: tissue-based, Sus scrofa, Heart; conditions: Not Active = under 50% inhibition at 10 µM
Calcitonin receptor = target: T2, Calcitonin receptor (Homo sapiens, UniProt P30988); format: cell membranes, Membrane; conditions: t47d; also: in other assays of this panel Not Active means under 50% inhibition at 10 µM
T2 sequence (P30988 whole entry): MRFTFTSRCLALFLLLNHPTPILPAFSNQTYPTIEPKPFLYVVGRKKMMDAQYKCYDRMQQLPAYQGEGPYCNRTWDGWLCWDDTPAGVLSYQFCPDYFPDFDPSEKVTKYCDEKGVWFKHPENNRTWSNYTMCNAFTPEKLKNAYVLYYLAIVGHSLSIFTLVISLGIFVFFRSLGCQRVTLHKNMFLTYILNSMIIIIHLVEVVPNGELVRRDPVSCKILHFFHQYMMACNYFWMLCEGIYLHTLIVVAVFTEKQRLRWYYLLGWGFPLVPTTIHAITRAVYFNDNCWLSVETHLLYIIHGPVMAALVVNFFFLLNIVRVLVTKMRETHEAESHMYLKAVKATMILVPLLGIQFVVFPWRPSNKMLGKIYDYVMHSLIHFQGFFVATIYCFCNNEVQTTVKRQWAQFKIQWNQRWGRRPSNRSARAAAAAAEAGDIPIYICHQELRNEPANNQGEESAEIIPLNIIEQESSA

[3] = target: Vascular endothelial growth factor receptor 1 (Homo sapiens, UniProt P17948); format: cell-based; conditions: huvec; also: in other assays of this panel Not Active means under 50% inhibition at 10 µM
[4] = DRUGMATRIX: GABAA, Flunitrazepam, Central radioligand binding (ligand: [3H] Flunitrazepam); format: cell membranes, Rattus norvegicus, Wistar, Brain, Membrane; conditions: Not Active = under 50% inhibition at 10 µM
[5] = target: T3, Muscarinic acetylcholine receptor M5 (Homo sapiens, UniProt P08912); format: cell membranes, CHO-K1, Membrane; conditions: cho-k1; also: in other assays of this panel Not Active means under 50% inhibition at 10 µM
T3 sequence (P08912 whole entry): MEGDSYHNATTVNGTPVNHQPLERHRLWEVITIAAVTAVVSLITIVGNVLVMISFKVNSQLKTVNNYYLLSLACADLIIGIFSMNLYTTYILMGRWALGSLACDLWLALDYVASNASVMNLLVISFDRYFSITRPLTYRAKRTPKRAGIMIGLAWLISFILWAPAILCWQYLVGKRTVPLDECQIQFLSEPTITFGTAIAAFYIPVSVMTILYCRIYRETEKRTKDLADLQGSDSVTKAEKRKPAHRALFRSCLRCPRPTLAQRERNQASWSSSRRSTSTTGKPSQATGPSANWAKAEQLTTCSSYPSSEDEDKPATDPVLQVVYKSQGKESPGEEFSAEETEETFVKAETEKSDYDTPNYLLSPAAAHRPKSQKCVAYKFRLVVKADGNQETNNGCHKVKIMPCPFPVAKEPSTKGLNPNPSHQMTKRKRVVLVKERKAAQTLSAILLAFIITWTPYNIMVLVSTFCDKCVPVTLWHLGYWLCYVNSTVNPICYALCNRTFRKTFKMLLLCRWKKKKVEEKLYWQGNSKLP

[6] = DRUGMATRIX: Nicotinic Acetylcholine radioligand binding (ligand: [125I] Epibatidine); format: cell membranes, Membrane; conditions: imr-32; Not Active = under 50% inhibition at 10 µM
[7] = target: Kappa-type opioid receptor (Homo sapiens, UniProt P41145); assay: DRUGMATRIX: Opiate kappa (OP2, KOP) radioligand binding (ligand: [3H] Diprenorphine); format: cell membranes, HEK293, Membrane; conditions: hek293; Not Active = under 50% inhibition at 10 µM
[8] = DRUGMATRIX: Phorbol Ester radioligand binding (ligand: [3H] PDBu); format: cell membranes, Mus musculus, ICR, Brain, Membrane; conditions: Not Active = under 50% inhibition at 10 µM
Caspase-1 = target: T4, Caspase-1 (Homo sapiens, UniProt P29466); set-up: species or system Escherichia coli
T4 sequence (P29466 whole entry): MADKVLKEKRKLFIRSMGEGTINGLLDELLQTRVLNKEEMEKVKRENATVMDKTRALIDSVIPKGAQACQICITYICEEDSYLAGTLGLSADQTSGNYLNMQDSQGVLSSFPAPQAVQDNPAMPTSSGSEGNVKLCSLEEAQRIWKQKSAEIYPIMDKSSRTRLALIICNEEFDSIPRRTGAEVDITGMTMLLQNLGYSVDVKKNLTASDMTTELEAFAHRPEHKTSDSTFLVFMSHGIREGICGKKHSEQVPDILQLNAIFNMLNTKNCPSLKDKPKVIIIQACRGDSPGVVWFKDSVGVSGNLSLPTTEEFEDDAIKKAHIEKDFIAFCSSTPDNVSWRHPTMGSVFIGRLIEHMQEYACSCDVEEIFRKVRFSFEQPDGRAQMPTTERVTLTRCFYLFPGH

[9] = target: Matrix metalloproteinase-9 (Homo sapiens, UniProt P14780); format: cell-based
Cytochrome P450 2C9 = Cytochrome P450 2C9 (Homo sapiens, UniProt P11712); conditions: bti-tn-5b1-4; also: in other assays of this panel Not Active means under 50% inhibition at 10 µM
Sequence of Cytochrome P450 2C9 (P11712 whole entry): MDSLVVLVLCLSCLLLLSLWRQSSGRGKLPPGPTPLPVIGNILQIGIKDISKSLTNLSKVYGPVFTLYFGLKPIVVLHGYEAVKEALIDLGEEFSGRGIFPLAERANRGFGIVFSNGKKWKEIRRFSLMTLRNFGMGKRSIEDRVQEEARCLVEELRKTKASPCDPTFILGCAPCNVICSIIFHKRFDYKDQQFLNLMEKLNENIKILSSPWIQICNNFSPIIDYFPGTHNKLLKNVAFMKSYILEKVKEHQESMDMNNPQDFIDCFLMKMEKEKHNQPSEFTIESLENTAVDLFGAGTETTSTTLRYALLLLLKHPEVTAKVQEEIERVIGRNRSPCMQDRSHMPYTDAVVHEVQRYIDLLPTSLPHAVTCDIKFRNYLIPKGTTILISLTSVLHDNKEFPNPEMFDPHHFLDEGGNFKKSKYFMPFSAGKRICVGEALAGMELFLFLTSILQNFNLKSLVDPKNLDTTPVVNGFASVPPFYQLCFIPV

Sequence of Vascular endothelial growth factor receptor 1 (P17948 whole entry): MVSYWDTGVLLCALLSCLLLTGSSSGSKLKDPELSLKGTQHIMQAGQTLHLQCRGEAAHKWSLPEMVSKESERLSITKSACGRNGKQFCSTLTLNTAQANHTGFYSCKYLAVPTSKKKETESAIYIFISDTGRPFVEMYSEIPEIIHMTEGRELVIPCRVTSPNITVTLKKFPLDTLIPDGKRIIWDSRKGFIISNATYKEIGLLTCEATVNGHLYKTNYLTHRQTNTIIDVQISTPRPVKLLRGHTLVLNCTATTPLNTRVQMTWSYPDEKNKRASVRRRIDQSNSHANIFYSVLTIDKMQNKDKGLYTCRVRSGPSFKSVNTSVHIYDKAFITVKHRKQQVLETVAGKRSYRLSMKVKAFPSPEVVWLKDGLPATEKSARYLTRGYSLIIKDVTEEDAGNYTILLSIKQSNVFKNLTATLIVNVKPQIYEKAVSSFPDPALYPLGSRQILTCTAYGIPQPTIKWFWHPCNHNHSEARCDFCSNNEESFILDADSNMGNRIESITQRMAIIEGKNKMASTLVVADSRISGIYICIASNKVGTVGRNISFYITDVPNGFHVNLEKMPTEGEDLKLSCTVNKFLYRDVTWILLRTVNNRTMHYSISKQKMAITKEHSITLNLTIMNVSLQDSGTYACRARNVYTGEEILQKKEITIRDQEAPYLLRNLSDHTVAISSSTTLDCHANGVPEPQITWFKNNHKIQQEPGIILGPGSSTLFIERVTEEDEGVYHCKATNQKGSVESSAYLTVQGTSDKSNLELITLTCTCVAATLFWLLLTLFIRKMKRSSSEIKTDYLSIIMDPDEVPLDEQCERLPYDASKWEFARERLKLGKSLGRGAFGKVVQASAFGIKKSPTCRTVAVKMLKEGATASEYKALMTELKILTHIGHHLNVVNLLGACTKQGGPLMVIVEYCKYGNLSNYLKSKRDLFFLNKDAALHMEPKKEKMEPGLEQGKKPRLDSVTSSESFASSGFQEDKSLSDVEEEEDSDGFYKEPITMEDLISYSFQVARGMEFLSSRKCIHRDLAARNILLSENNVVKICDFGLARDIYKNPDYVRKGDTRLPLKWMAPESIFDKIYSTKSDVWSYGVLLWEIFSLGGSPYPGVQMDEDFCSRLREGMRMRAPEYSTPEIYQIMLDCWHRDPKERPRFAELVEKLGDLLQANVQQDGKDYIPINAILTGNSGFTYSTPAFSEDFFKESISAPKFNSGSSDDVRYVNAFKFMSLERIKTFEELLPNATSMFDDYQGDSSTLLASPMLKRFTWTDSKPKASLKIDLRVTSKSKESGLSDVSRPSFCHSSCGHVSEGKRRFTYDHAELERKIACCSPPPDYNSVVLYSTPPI
Sequence of Matrix metalloproteinase-9 (P14780 whole entry): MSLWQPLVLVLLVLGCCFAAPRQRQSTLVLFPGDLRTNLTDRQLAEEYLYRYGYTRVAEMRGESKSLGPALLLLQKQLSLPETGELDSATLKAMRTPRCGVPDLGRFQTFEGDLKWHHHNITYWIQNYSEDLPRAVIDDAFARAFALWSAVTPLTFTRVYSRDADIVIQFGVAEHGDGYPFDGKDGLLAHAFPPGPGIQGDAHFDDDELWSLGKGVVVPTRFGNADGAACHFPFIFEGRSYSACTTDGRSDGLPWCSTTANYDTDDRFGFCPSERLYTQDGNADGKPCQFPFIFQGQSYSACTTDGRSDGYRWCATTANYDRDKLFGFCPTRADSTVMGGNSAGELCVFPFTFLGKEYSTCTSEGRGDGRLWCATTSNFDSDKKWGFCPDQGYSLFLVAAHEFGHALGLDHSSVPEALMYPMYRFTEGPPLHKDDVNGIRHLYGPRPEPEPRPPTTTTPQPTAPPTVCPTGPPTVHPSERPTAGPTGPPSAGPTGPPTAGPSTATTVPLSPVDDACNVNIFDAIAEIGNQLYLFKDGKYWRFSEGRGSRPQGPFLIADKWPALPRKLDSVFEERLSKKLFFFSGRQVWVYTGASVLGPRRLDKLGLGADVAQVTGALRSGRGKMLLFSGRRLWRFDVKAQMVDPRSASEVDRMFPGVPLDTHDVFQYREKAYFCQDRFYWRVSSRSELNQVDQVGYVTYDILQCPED
Sequence of Kappa-type opioid receptor (P41145 whole entry): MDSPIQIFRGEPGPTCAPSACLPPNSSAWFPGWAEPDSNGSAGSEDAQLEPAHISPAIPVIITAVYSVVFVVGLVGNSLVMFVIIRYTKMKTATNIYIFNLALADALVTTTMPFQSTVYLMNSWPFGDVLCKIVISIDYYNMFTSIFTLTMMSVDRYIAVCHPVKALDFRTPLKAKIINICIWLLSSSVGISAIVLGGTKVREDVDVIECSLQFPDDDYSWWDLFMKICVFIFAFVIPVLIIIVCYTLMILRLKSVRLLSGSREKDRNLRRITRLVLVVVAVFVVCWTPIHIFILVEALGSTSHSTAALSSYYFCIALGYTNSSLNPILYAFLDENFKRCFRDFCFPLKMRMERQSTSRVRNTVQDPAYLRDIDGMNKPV

CC(C)(Oc1ccc(CCNC(=O)c2ccc(Cl)cc2)cc1)C(=O)O [BEZAFIBRATE]
Not Active: IC50 [1] | IC50 [2] | Ki [2] | IC50 (Calcitonin receptor) | IC50 [3] | IC50 [4] | Ki [4] | IC50 [5] | IC50 [6] | Ki [6] | IC50 [7] | IC50 [8] | Ki [8] | IC50 (Caspase-1) | IC50 [9] | IC50 (Cytochrome P450 2C9) | Ki (Cytochrome P450 2C9)

CCCSc1ccc2nc(NC(=O)OC)[nH]c2c1 [ALBENDAZOLE]
Not Active: IC50 [1] | IC50 [2] | Ki [2] | IC50 (Calcitonin receptor) | IC50 [3] | IC50 [4] | Ki [4] | IC50 [5] | IC50 [6] | Ki [6] | IC50 [7] | IC50 [8] | Ki [8] | IC50 (Caspase-1) | IC50 [9] | IC50 (Cytochrome P450 2C9) | Ki (Cytochrome P450 2C9)

C=C1C(=O)O[C@@H]2C3O[C@]3(C)CC/C=C(\C)CC[C@@H]12 (some centres not stated)
Not Active: IC50 [1] | IC50 [2] | Ki [2] | IC50 (Calcitonin receptor) | IC50 [3] | IC50 [4] | Ki [4] | IC50 [5] | IC50 [6] | Ki [6] | IC50 [7] | IC50 [8] | Ki [8] | IC50 (Caspase-1) | IC50 [9] | IC50 (Cytochrome P450 2C9) | Ki (Cytochrome P450 2C9)

CN1C(C(=O)Nc2ccccn2)=C(O)c2ccccc2S1(=O)=O [PIROXICAM]
Not Active: IC50 [1] | IC50 [2] | Ki [2] | IC50 (Calcitonin receptor) | IC50 [3] | IC50 [4] | Ki [4] | IC50 [5] | IC50 [6] | Ki [6] | IC50 [7] | IC50 [8] | Ki [8] | IC50 (Caspase-1) | IC50 [9] | IC50 (Cytochrome P450 2C9) | Ki (Cytochrome P450 2C9)

COc1c(N2CCNC(C)C2)c(F)cc2c(=O)c(C(=O)O)cn(C3CC3)c12 (configuration not stated) [GATIFLOXACIN]
Not Active: IC50 [1] | IC50 [2] | Ki [2] | IC50 (Calcitonin receptor) | IC50 [3] | IC50 [4] | Ki [4] | IC50 [5] | IC50 [6] | Ki [6] | IC50 [7] | IC50 [8] | Ki [8] | IC50 (Caspase-1) | IC50 [9] | IC50 (Cytochrome P450 2C9) | Ki (Cytochrome P450 2C9)

CC(/C=C1\SC(=S)N(CC(=O)O)C1=O)=C\c1ccccc1
Not Active: IC50 [1] | IC50 [2] | Ki [2] | IC50 (Calcitonin receptor) | IC50 [3] | IC50 [4] | Ki [4] | IC50 [5] | IC50 [6] | Ki [6] | IC50 [7] | IC50 [8] | Ki [8] | IC50 (Caspase-1) | IC50 [9] | IC50 (Cytochrome P450 2C9) | Ki (Cytochrome P450 2C9)
